Reference: PubChem BioAssay AID1549 (Sanford-Burnham Center for Chemical Genomics, 2009)
The source made the active and inactive calls. The rule behind the calls is not given here.

Target: Influenza A virus M2 proton channel (A/TW/4845/1999 H1N1)
Assay: M2 proton channel binding, NMR based, influenza A virus H1N1 strain (AID 1549)
Settings: NMR binding screen, M2 protein

SMILES	Kd
COCC(=O)OCn1nnc2ccccc2c1=O	> 4 mM (inactive)
CCOc1ccc(C)cc1S(=O)(=O)n1ccc(C)n1	> 4 mM (inactive)
COc1ccc2c(c1)OCC(Cc1ccc(OC)c(OC)c1)C2=O (centres undefined)	> 4 mM (inactive)
CSc1ccn(CCC(=O)O)c(=O)n1	> 4 mM (inactive)
Cc1cc(C(=O)N2CCN(c3ncccn3)CC2)c(C)o1	> 4 mM (inactive)
Cc1cc(O)cc(=O)o1	> 4 mM (inactive)
Nc1ccc2c(c1)OCCO2	> 4 mM (inactive)
COc1ccc(-c2nnsc2N)cc1	> 4 mM (inactive)
NS(=O)(=O)c1ccc(N2CCCC2=O)cc1	> 4 mM (inactive)
Cc1nc(-c2ccc(C(=O)O)s2)cs1	> 4 mM (inactive)
O=C(Nn1cnnc1)c1csc2ccccc12	> 4 mM (inactive)
O=S1(=O)NC(=NCc2ccco2)c2ccccc21	> 4 mM (inactive)
Cc1nc2ccccc2c2c1C(=O)N(C)C2=O	> 4 mM (inactive)
COc1cc(OC)c(-c2c(OC)cc(OC)cc2OC)c(OC)c1	> 4 mM (inactive)
Cc1nnc(C)n1/N=C/c1cccs1	> 4 mM (inactive)
CC1=CC(=O)NC2C=CC=CC12 (centres undefined)	> 4 mM (inactive)
C=C(C)C1CC=C(CO)CC1 (centres undefined)	> 4 mM (inactive)
CCOC(=O)c1cnn2ccccc12	> 4 mM (inactive)
CC(C)=CCC1=C(O)c2ccccc2C(=O)C1=O	> 4 mM (inactive)
CCCCCCCCCCCC[C@H](C(=O)O)[C@@H](C)C(=O)O	> 4 mM (inactive)
Nc1nc2c3ccccc3nc(Cc3ccccc3)n2n1	> 4 mM (inactive)
NC(=O)CCn1ncc2ccccc21	> 4 mM (inactive)
CSc1ccc(C2NC(=O)CCC2[N+](=O)[O-])cc1 (centres undefined)	> 4 mM (inactive)
Cc1cc(SCCF)n2ncnc2n1	> 4 mM (inactive)
O=C1NC(=S)N/C1=C\c1cccc([N+](=O)[O-])c1	> 4 mM (inactive)

SMILES	Kd
c1ccc(CSc2ncccn2)cc1	> 4 mM (inactive)
O=C(NCCO)c1ccccc1I	> 4 mM (inactive)
COC(=O)c1c(SC)nc(-c2ccccc2)[nH]c1=O	> 4 mM (inactive)
O=[N+]([O-])c1cccc(CN2CCC(O)CC2)c1	> 4 mM (inactive)
O=C(CSc1ncccn1)Nc1nccs1	> 4 mM (inactive)
Cn1cnnc1Sc1ncnc(N)c1[N+](=O)[O-]	> 4 mM (inactive)
CCOC(=O)c1cc(C)n(C)n1	> 4 mM (inactive)
CC(=O)OC[C@@]1(O)C[C@@]23CCC4c5ccoc5CC[C@]4(C)C2CC[C@@H]1C3 (some centres undefined)	> 4 mM (inactive)
OCC1CN(Cc2ccccc2)CCO1 (centres undefined)	> 4 mM (inactive)
CCn1nnc(NC(=O)c2cc3ccccc3o2)n1	> 4 mM (inactive)
COc1ccc(-c2ccc(SCC(N)=O)nn2)cc1	> 4 mM (inactive)
O=C1NC(=O)C(C(C[N+](=O)[O-])c2ccc(O)cc2)C(=O)N1 (centres undefined)	> 4 mM (inactive)
CC1CC[C@]2(NC1)O[C@H]1CC3C4CC[C@H]5C[C@@H](O)CC[C@]5(C)C4CC[C@]3(C)[C@H]1[C@@H]2C (some centres undefined)	> 4 mM (inactive)
O=C(O)c1cc(F)cc2c1OCOC2	> 4 mM (inactive)
CC1=CC(=O)C2C(C)(C)CCC[C@]2(C)[C@@]1(O)CCc1ccoc1 (some centres undefined)	> 4 mM (inactive)
Nc1ccc2c(C(F)(F)F)cc(=O)oc2c1	> 4 mM (inactive)
O=C(c1ccco1)N1CCn2c1nc1ccccc12	> 4 mM (inactive)
O=C(O)CN(CCCc1ccccc1)CC(=O)O	> 4 mM (inactive)
CCN1C(=O)c2c(C)nc3ccccc3c2C1=O	> 4 mM (inactive)
O=C1N=C(N2CCOCC2)S/C1=C\c1cccnc1	> 4 mM (inactive)
O=C(Nn1c(=S)[nH]c2ccccc2c1=O)c1ccncc1	> 4 mM (inactive)
c1ccc(SCc2nc(-c3ccncc3)no2)cc1	> 4 mM (inactive)
O=C(O)c1cc2ccccc2o1	> 4 mM (inactive)
Nc1ccc(Cc2ccncc2)cc1	> 4 mM (inactive)
